Data reported in patent US20230112484A1, “COMPOSITIONS FOR CROP PROTECTION” (Agrematch Ltd., priority 2020, published 2023).

Tests used:
Type in all cases: in vivo
Amaranthus palmeri [1] = experiment: Paper germination (Example 1); conditions: 0.1 mg/ml
Method: (§1) Compounds were dissolved in DMSO and then in distilled water to get 0.1 or 0.5 mg/ml solution with 0.5% DMSO.
(§2) 0.5% DMSO solution in water was used as a negative control. As a positive control, 0.1 mg/ml oxyfluorfen (Galigan) solution was used.
(§3) A towel paper was placed in each box as bedding for seeds. Each box was soaked with 6 ml of the solutions on its paper. 13 seeds were placed on the wet paper and the box was sealed and incubated under conditions provided bellow.
Amaranthus palmeri—first 2 days under dark conditions. Plants were first incubated at 25° C. for 8 hr, then at 30° C. for 16 hr. Afterwards, plants were incubated at 25° C. for 8 hr in dark, followed by 16 hr incubation at 30° C. in light.
(§4) Gemination was assessed and scored after 3-7 days. Scoring scale: 0—complete germination inhibition, 100—no effect.

Lolium rigidum [2] = experiment: Paper germination (Example 1); conditions: 0.1 mg/ml
Method: as §1, §2, §3
Lolium rigidum—first 4 days under dark conditions at 21° C. Afterwards, plants were incubated at 21° C. for 8 hr in dark, followed by 16 hr at 21° C. in light.
as §4

Lolium rigidum [3] = experiment: Soil germination (Example 1)
Method: (§5) Compounds were dissolved in DMSO and then in distilled water to get 0.01-2 mg/ml solution with 1% or 2% DMSO. 1% or 2% DMSO solution in water was used as a negative control. As a positive control, 0.1 or 0.2 mg/ml oxyfluorfen (Galigan) solution was used.
(§6) Flowerpots were filled with 30 g of soil, and 4-5 seeds were sowed in each flowerpot. Each treatment contained 3 flowerpots. Each flowerpot was sprayed with 1.5 ml of the dissolved compound. Soil was let dry for about 1 hour at room conditions, and then each flowerpot was sub-irrigated with 40 ml water and incubated under conditions provided below.
(§7) Amaranthus palmeri was incubated at 25° C. for 8 hr in dark, followed by 16 hr at 30° C. in light. Lolium rigidum was incubated at 21° C. for 8 hr in dark, followed by 16 hr at 21° C. in light. Germination was assessed and scored after 4-7 days. Scoring scale: 0—complete germination inhibition, 100—no effect.

Amaranthus palmeri [4] = experiment: Soil germination (Example 1); conditions: for Amaranthus palmeri soil germination: score 0 = complete germination inhibition, 100 = no effect
Method: as §5, §6, §7

Abutilon theophrasti [5] = experiment: Foliar experiment (Example 2); conditions: 0.5 mg/ml; score 0 = complete phytotoxic effect, 100 = no effect
Method: (§8) Compounds were dissolved in DMSO and then in distilled water to get 0.1 or 0.5 mg/ml solution with 2% DMSO. Break-Thru surfactant was added to a final concentration of 0.05%. Negative control—an aqueous solution of 2% DMSO and 0.05% Break-Thru. Positive control—2 mg/ml Glyphosate (Roundup). 1.5 ml of each compound solution were sprayed on the foliage of different plants, which were 6-16 days old at the day of the experiment. Each treatment contained 3 pots. Plants were let dry for about 15 minutes at room conditions, and then incubated at controlled growth chambers. Phytotoxicity was assessed and scored 4-10 days after applications. Scoring scale: 0—complete phytotoxic effect, 100—no effect. [table]

Amaranthus palmeri [6] = experiment: Foliar experiment (Example 2); conditions: 0.5 mg/ml; score 0 = complete phytotoxic effect, 100 = no effect; 4-10 days after application
Method: as §8

Brassica napus [7] = experiment: Foliar experiment (Example 2); conditions: 0.5 mg/ml; score 0 = complete phytotoxic effect, 100 = no effect
Method: as §8

Echinochloa colonum [8] = experiment: Foliar experiment (Example 2); conditions: 0.5 mg/ml; score 0 = complete phytotoxic effect, 100 = no effect
Method: as §8

Gossypium hirsutum [9] = experiment: Foliar experiment (Example 2); conditions: 0.5 mg/ml; score 0 = complete phytotoxic effect, 100 = no effect
Method: as §8

Lactuca sativa [10] = experiment: Foliar experiment (Example 2); conditions: 0.5 mg/ml; score 0 = complete phytotoxic effect, 100 = no effect
Method: as §8

Lolium rigidum [11] = experiment: Foliar experiment (Example 2); conditions: 0.5 mg/ml; score 0 = complete phytotoxic effect, 100 = no effect
Method: as §8

Phalaris brachystachys = experiment: Foliar experiment (Example 2); conditions: 0.5 mg/ml; score 0 = complete phytotoxic effect, 100 = no effect
Method: as §8

Setaria adhaerens [12] = experiment: Foliar experiment (Example 2); conditions: 0.5 mg/ml; score 0 = complete phytotoxic effect, 100 = no effect
Method: as §8

Sinapis alba [13] = experiment: Foliar experiment (Example 2); conditions: 0.5 mg/ml; score 0 = complete phytotoxic effect, 100 = no effect
Method: as §8

Solarium nigrum [14] = experiment: Foliar experiment (Example 2); conditions: 0.5 mg/ml; score 0 = complete phytotoxic effect, 100 = no effect
Method: as §8

Triticum vulgare [15] = experiment: Foliar experiment (Example 2); conditions: 0.5 mg/ml; score 0 = complete phytotoxic effect, 100 = no effect
Method: as §8

Zea mays [16] = experiment: Foliar experiment (Example 2); conditions: 0.5 mg/ml; score 0 = complete phytotoxic effect, 100 = no effect
Method: as §8

Abutilon theophrasti [17] = experiment: Soil germination (Example 3); conditions: 0.5 mg/ml; score 0 = complete germination inhibition, 100 = no effect; after 7 days
Method: (§9) Compounds were dissolved in DMSO and then in distilled water to get 0.1 or 0.5 mg/ml solution with 2% DMSO. 2% DMSO solution in water was used as a negative control. No positive control was used in this assay. Flowerpots were filled with 30 g of soil, each treatment contained three flowerpots. Each flowerpot was sprayed with 1.5 ml of the dissolved compound. Soil was let dry for about 1 hour at room conditions, and then each flowerpot was sub-irrigated with 40 ml water and incubated at controlled growth chambers, under conditions provided on table 6. Gemination was assessed and scored after 7 days. Scoring scale: 0—complete germination inhibition, 100—no effect. [table]

Amaranthus palmeri [18] = experiment: Soil germination (Example 3); conditions: 0.5 mg/ml; score 0 = complete germination inhibition, 100 = no effect; after 7 days
Method: as §9

Brassica napus [19] = experiment: Soil germination (Example 3); conditions: 0.5 mg/ml; score 0 = complete germination inhibition, 100 = no effect; after 7 days
Method: as §9

Echinochloa colonum [20] = experiment: Soil germination (Example 3); conditions: 0.5 mg/ml; score 0 = complete germination inhibition, 100 = no effect; after 7 days
Method: as §9

Gossypium hirsutum [21] = experiment: Soil germination (Example 3); conditions: 0.5 mg/ml; score 0 = complete germination inhibition, 100 = no effect; after 7 days
Method: as §9

Lactuca sativa [22] = experiment: Soil germination (Example 3); conditions: 0.5 mg/ml; score 0 = complete germination inhibition, 100 = no effect; after 7 days
Method: as §9

Lolium rigidum [23] = experiment: Soil germination (Example 3); conditions: 0.5 mg/ml; score 0 = complete germination inhibition, 100 = no effect; after 7 days
Method: as §9

Setaria adhaerens [24] = experiment: Soil germination (Example 3); conditions: 0.5 mg/ml; score 0 = complete germination inhibition, 100 = no effect; after 7 days
Method: as §9

Sinapis alba [25] = experiment: Soil germination (Example 3); conditions: 0.5 mg/ml; score 0 = complete germination inhibition, 100 = no effect; after 7 days
Method: as §9

Solarium nigrum [26] = experiment: Soil germination (Example 3); conditions: 0.5 mg/ml; score 0 = complete germination inhibition, 100 = no effect; after 7 days
Method: as §9

Triticum vulgare [27] = experiment: Soil germination (Example 3); conditions: 0.5 mg/ml; score 0 = complete germination inhibition, 100 = no effect; after 7 days
Method: as §9

Zea mays [28] = experiment: Soil germination (Example 3); conditions: 0.5 mg/ml; score 0 = complete germination inhibition, 100 = no effect; after 7 days
Method: as §9

a variety of plants = experiment: Foliar experiment (Example 2), overall statement; conditions: as shown in Table 5
Method: as §8

## CC(Cl)/C=C/C(=O)N(CC(C)C)c1ccc(Cl)cc1F (stereo not shown)
Amaranthus palmeri [1]
  paper germination reduction of Amaranthus palmeri: not active
Lolium rigidum [2]
  paper germination reduction of Lolium rigidum: not active
Lolium rigidum [3]; 1 mg/ml
  Lolium rigidum soil germination: unable to reduce soil germination

## CC(Cl)/C=C/C(=O)N(Cc1ccc(Cl)s1)CC(C)C (stereo not shown) [Compound 4]
Amaranthus palmeri [4]; 0.1 mg/ml
  Amaranthus palmeri soil germination: 0
Amaranthus palmeri [4]; 0.25 mg/ml
  Amaranthus palmeri soil germination: 0
Amaranthus palmeri [4]; 0.5 mg/ml
  Amaranthus palmeri soil germination: 0
Amaranthus palmeri [4]; 1 mg/ml
  Amaranthus palmeri soil germination: 0
Amaranthus palmeri [4]; concentration not given
  soil germination of Amaranthus palmeri, result in words: active
Lolium rigidum [3]; 0.5 mg/ml, score 0 = complete germination inhibition, 100 = no effect
  Lolium rigidum soil germination: 60
Lolium rigidum [3]; 2 mg/ml, score 0 = complete germination inhibition, 100 = no effect
  Lolium rigidum soil germination: 70
Lolium rigidum [3]; concentration not given
  soil germination of Lolium rigidum, result in words: active
Abutilon theophrasti [5]
  Herbicidal activity, foliar, Abutilon theophrasti: 5
Amaranthus palmeri [6]
  Herbicidal activity, foliar, Amaranthus palmeri: 0
Brassica napus [7]
  Herbicidal activity, foliar, Brassica napus: 0
Echinochloa colonum [8]
  Herbicidal activity, foliar, Echinochloa colonum: 70
Gossypium hirsutum [9]
  Herbicidal activity, foliar, Gossypium hirsutum: 60
Lactuca sativa [10]
  Herbicidal activity, foliar, Lactuca sativa: 0
Lolium rigidum [11]
  Herbicidal activity, foliar, Lolium rigidum: 10
Phalaris brachystachys
  Herbicidal activity, foliar, Phalaris brachystachys: 5
Setaria adhaerens [12]
  Herbicidal activity, foliar, Setaria adhaerens: 5
Sinapis alba [13]
  Herbicidal activity, foliar, Sinapis alba: 10
Solarium nigrum [14]
  Herbicidal activity, foliar, Solarium nigrum: 0
Triticum vulgare [15]
  Herbicidal activity, foliar, Triticum vulgare: 100
Zea mays [16]
  Herbicidal activity, foliar, Zea mays: 80
Abutilon theophrasti [17]
  Herbicidal activity, soil germination, Abutilon theophrasti: 10
Amaranthus palmeri [18]
  Herbicidal activity, soil germination, Amaranthus palmeri: 0
Brassica napus [19]
  Herbicidal activity, soil germination, Brassica napus: 10
Echinochloa colonum [20]
  Herbicidal activity, soil germination, Echinochloa colonum: 5
Gossypium hirsutum [21]
  Herbicidal activity, soil germination, Gossypium hirsutum: 90
Lactuca sativa [22]
  Herbicidal activity, soil germination, Lactuca sativa: 70
Lolium rigidum [23]
  Herbicidal activity, soil germination, Lolium rigidum: 60
Setaria adhaerens [24]
  Herbicidal activity, soil germination, Setaria adhaerens: 5
Sinapis alba [25]
  Herbicidal activity, soil germination, Sinapis alba: 30
Solarium nigrum [26]
  Herbicidal activity, soil germination, Solarium nigrum: 10
Triticum vulgare [27]
  Herbicidal activity, soil germination, Triticum vulgare: 60
Zea mays [28]
  Herbicidal activity, soil germination, Zea mays: 80
A variety of plants
  Herbicidal activity in a variety of plants, foliar, result in words: solid herbicidal activity
